Data as given in patent publication US20240208984A1, “BIVALENT LIGANDS TO UNDERSTAND DIMERIZATION OF THE MU OPIOID RECEPTOR AND THE CHEMOKINE RECEPTOR CCR5 IN NEUROLOGICAL DISORDERS” (priority 2021, published 2024).
Where two headings read alike, the source gives them in different places. Marks after values point to notes of the source that are not given here.

How the values were obtained:
[1] = test system: HIV-1BaL; assay: Anti-HIV-1BaL activity (reverse transcriptase activity) in GHOST CCR5 cells; details: for EC50: read-out: Inhibition of HIV-1BaL EC50, RT activity, triplicate
Protocol: This assay was run in GHOST-CCR5 cells using the CCR5-tropic viral strain HIV-1BaL.
(§1) 100 μL of GHOST CCR5 cells at a density of 1×10^4 cells/well in 10% complete DMEM (10% FBS with 1% L-glutamine and 1% Penicillin/Streptomycin) media were plated in a 96-well flat bottom plate and incubated for 24 h at 37° C./5% CO2. Following the incubation, 100 μL of each compound at 6 concentrations were added in triplicate to both efficacy and toxicity plates followed by 100 μL of HIV-1BaL at a pre-determined titer to the plates being evaluated for efficacy and 50 μL of complete DMEM to the plates being evaluated for cytotoxicity. The cultures were incubated for 6 days at 37° C./5% CO2. Following the incubation, 50 μL of cell culture supernatant was removed from the wells of the efficacy plates for subsequent evaluation of virus content by reverse transcriptase activity assay. The toxicity plates being evaluated for cytotoxicity were stained with XTT.
RT activity (EC50 values) was measured using standard radioactivity incorporation polymerization assay. 1 μL of titrated thymidine triphosphate (TTP) at 1 Ci/mL was used per enzyme reaction. Poly rA and oligo dT were prepared at concentrations of 0.5 mg/mL and 1.7 Units/mL, respectively, from a stock solution which was kept at −20° C. The RT reaction buffer was prepared fresh and consists of 125 μL of 1M EGTA, 125 μL of dH2O, 125 μL of 20% Triton X-100, 50 μL of 1M Tris (pH 7.4), 50 μL of 1M DTT, and 40 μL of 1 M MgCl2. For each reaction, 1 μL of TTP, 4 μL of dH2O, 2.5 μL of rAdT and 2.5 μL of reaction buffer were mixed. 10 μL of this reaction mixture was placed in a round bottom microtiter plate with 15 μL of virus containing supernatant. The plate was incubated at 37° C. in a humidified incubator for 60-90 min. […] The dried filtermat was placed in a plastic sleeve and 4 mL of Opti-Fluor O (Perkin Elmer, catalog #1205-440) scintillation fluid was added to each sleeve. […] TC50 values for the tested compounds were derived by measuring the reduction of the tetrazolium dye XTT (2,3-bis(2-methoxy-4-nitro-5-sulfophenyl)-5-[(phenylamino)carbonyl]-2H-tetrazolium hydroxide). XTT in metabolically active cells is metabolized by the mitochondrial enzyme NADPH oxidase to a soluble formazan product. XTT solution was prepared as a stock of 1 mg/mL in RPMI-1640 without additives. Phenazine methosulfate (PMS) solution was prepared at 0.15 mg/mL in DPBS and stored in the dark at −20° C. XTT/PMS stock was prepared immediately before use by adding 40 μL of PMS per mL of XTT solution. […] The plates were sealed and inverted several times to mix the soluble formazan product and the plate was read at 450 nm (650 nm reference wavelength) with a Molecular Devices SPECTRAMAX® Plus 384 96 well format spectrophotometer.

[2] = test system: GHOST CCR5 cells; details: GHOST CCR5 cells; XTT; triplicate
Protocol: These compounds were concurrently assessed for cytotoxicity in GHOST-CCR5-expressing cells using the XTT assay. […] The therapeutic index (TI, TC50/EC50) values were calculated if applicable.
as §1
TC50 values for the tested compounds were derived by measuring the reduction of the tetrazolium dye XTT (2,3-bis(2-methoxy-4-nitro-5-sulfophenyl)-5-[(phenylamino)carbonyl]-2H-tetrazolium hydroxide). XTT in metabolically active cells is metabolized by the mitochondrial enzyme NADPH oxidase to a soluble formazan product. XTT solution was prepared as a stock of 1 mg/mL in RPMI-1640 without additives. Phenazine methosulfate (PMS) solution was prepared at 0.15 mg/mL in DPBS and stored in the dark at −20° C. XTT/PMS stock was prepared immediately before use by adding 40 μL of PMS per mL of XTT solution. 50 μL of XTT/PMS was added to each well of the plate and the plate was incubated for 4 h at 37° C. The plates were sealed and inverted several times to mix the soluble formazan product and the plate was read at 450 nm (650 nm reference wavelength) with a Molecular Devices SPECTRAMAX® Plus 384 96 well format spectrophotometer.

[3] = test system: HIV-1BaL Env-pseudotyped Luc-expressing virus; assay: HIV-1 infection assay in PHA-stimulated PBMC cells; type: cell-based; details: PHA-stimulated PBMCs; 10 nM
Protocol: Peripheral blood mononuclear cells (PBMCs) include large numbers of CCR5-expressing leukocytes and are susceptible to infection by R5-tropic HIV-1 strains.
In a 24-well plate, PHA-stimulated PBMC cells from healthy donors were infected by incubation with the HIV-1BaL.01 env-pseudotyped Luc virus. A concentration of HIV-1 p24 50 pg/106 cells was used, and uninfected cells served as a negative control. […] After approximately 18-20 h, the supernatant was removed and stored at −80° C., cells were rinsed twice with PBS and lysed. The lysate was subsequently tested for the relative Tat protein expression by using a luciferase assay system (Promega). Luciferase activity was measured using a PHERASTAR® FS plate reader (BMG Labtech).

[4] = biological target: T1, Rhesus macaque chemokine CCR5 receptors (Macaca mulatta (Rhesus macaque), UniProt P61813); details: data reported before; similar assay with minor differences; read-out: CCR5 Radioligand Binding Affinity Ki; cited from earlier work
[5] = biological target: T2, CCR5 (Homo sapiens (Human), UniProt P51681); details: data reported before, shown for comparison; read-out: Inhibition of CCL5-stimulated Intracellular Ca2+ Mobilization IC50; cited from earlier work
[6] = biological target: T3, mouse mu opioid receptor (Mus musculus (Mouse), UniProt P42866); details: read-out: Inhibition of DAMGO Induced Ca2+ Mobilization IC50; data reported before, shown for comparison; cited from earlier work
[7] = biological target: T4, mouse MOR (Mus musculus (Mouse), UniProt P42866); details: [35S]GTPγS binding; data reported before, shown for comparison; cited from earlier work
[8] = biological target: T4, mouse MOR; assay: [35S]GTPγS functional assay in mMOR-CHO; type: biochemical; details: [35S]GTPγS binding, mean ± SEM
Protocol: After incubation, the bound radioactive ligand was separated from the free radioligand by filtration through a GF/B glass fiber filter paper and rinsed three times with ice-cold wash buffer (50 mM Tris-HCl, pH 7.2) using the Brandel harvester.

[9] = biological target: T1, Rhesus macaque chemokine CCR5 receptors; assay: In vitro CCR5 radioligand binding assay; details: [125I]MIP-1α radioligand; Chem-1 cells; Cheng-Prusoff; mean ± SEM; read-out: CCR5 Radioligand Binding Affinity Ki
Protocol: In vitro CCR5 radioligand binding studies. To verify the binding affinity of the bivalent ligands to the CCR5, the competitive radioligand binding assay was conducted in recombinant rhesus macaque CCR5-expressing Chem-1 cells, and macrophage inflammatory protein 1 beta (MIP-1β) was used as a control.
The CCR5 competitive radioligand binding assay was conducted following previously reported studies.74, 75 Rhesus macaque chemokine CCR5 receptors expressed in Chem-1 cells are assayed in modified HEPES buffer (50 mM HEPES, 1 mM CaCl2, 5 mM MgCl2, 0.2% BSA, pH 7.4). 3 μg of membrane protein was incubated with 0.10 nM [^125I]MIP-1α in the presence of six concentrations of tested compounds (10 μM, 1 μM, 0.1 μM, 10 nM, 1 nM, and 0.1 nM) for 90 min at 25° C. Non-specific binding is estimated in the presence of 0.1 μM MIP-1β.

[10] = biological target: T4, mouse MOR; assay: In vitro MOR radioligand binding assay; details: [3H]naloxone radioligand; mMOR-CHO; mean ± SEM; read-out: MOR Radioligand Binding Affinity Ki
Protocol: In vitro MOR radioligand binding studies. All bivalent ligands were first tested for their binding affinity to the MOR. The competitive radioligand binding assay was conducted using monoclonal mouse MOR expressed in CHO cell lines (mMOR-CHO).
In vitro MOR radioligand binding assay The competition binding assay was conducted using monoclonal mouse MOR expressed in Chinese hamster ovary (CHO) cell lines. In this assay, 30 μg of membrane protein was incubated with the radioligand [^3H] naloxone in the presence of different concentrations of tested compounds in TME buffer (50 mM Tris, 3 mM MgCl2, and 0.2 mM EGTA, pH 7.4) for 1.5 h at 30° C. The bound radioligand was separated by filtration using a Brandel harvester. […] The IC50 values were determined and converted to Ki values using the Cheng-Prusoff equation: Ki=IC50/[1+([L*]/KD)], where [L*] is the concentration of the radioligand and KD is the KD of the radioligand was determined.73

[11] = biological target: T2, CCR5; assay: Calcium mobilization assay in HOS-CCR5 cells; type: cell-based
Protocol: We then conducted the calcium mobilization assay to further test both the agonist and antagonist properties of the newly synthesized compounds in the HOS-CCR5 (stably transfected for the expression of CCR5) cells using our reported protocol, as calcium mobilization is associated with the activation of CCR5. Prior to the assay, the HOS-CCR5 cells were transiently transfected with a Gqi5 to boost calcium signaling levels.
In the antagonism assay, these compounds were assessed for their ability to inhibit CCL5-stimulated Ca^2+ mobilization.
HOS-CCR5 cells were transfected with Gqi5 pcDNA16 using Lipofectamine 2000 (Invitrogen) according to the manufacturer's recommended procedure and maintained in RPMI 1640 supplemented with 10% fetal bovine serum, 100 μg/mL penicillin, 100 μg/mL streptomycin, and 1 mg/mL G418 at 37° C. and 5% C02. 48 h after transfection, a total of 2,500,000 cells were spun down and brought back up in 8 mL of 50:1 HBSS: HEPES assay buffer. Cells were then plated at 25,000 cells per well into a clear bottom, black 96-well plate (Greiner Bio-one) and 50 μL of Fluo4 loading buffer [40 μL of 2 μM Fluo4-AM (Invitrogen), 100 μL of 2.5 mM probenecid, in 5 mL of assay buffer] was added to bring the volume up to 130 μL. After incubating for 45 min, 50 μL of varying concentrations of tested compounds were added and the plate was incubated for an additional 15 min. Plates were then read on a FlexStation3 microplate reader (Molecular Devices) at 494/516 ex/em for a total of 120 s. After 16 s of reading, 20 μL of 200 nM CCL5 (Biosource) in assay buffer, or assay buffer alone, was added to the wells to bring the total volume up to 200 μL. The changes in calcium mobilization were monitored and peak height values were obtained using SoftMaxPro software (Molecular Devices). Non-linear regression curves and IC50 values were generated using GraphPad Prism 8.0.1 (GraphPad Software, San Diego, CA). All experiments were repeated at least three times.

[12] = biological target: T3, mouse mu opioid receptor; assay: Calcium mobilization assay in mMOR-CHO cells; type: cell-based
Protocol: Calcium mobilization assay results in mMOR-CHO cells. The pharmacological profiles of the three newly prepared MOR bivalent ligands were further characterized for their effects on MOR-dependent intracellular Ca^2+ signaling in an mMOR-CHO cell line that was transfected with chimeric Gqi5 protein as previously described.
A CHO cell line stably expressing the mouse mu opioid receptor (mMOR-CHO) was used for this assay. The cells were transfected with Gαqi5 for 4 h and then plated (10,000 cells/well) to black 96-well plates with clear bottoms (Greiner Bio-One). After 24 h of incubation, the culture medium was removed, and the cells were washed with assay buffer (50 mL of HBSS, 1 mL of HEPES, 250 μL of probenecid, 50 μL of 1 mM CaCl2, and 50 μL of 1 mM MgCl2). The tested compounds were dissolved in DMSO as a stock solution for the assay (1 M). For agonist assays, cells were then incubated with 50 μL/well loading buffer (6 mL of assay buffer, 24 μL of Fluo4-AM solution (Invitrogen), and 12 μL of probenecid solution) for 60 min. Following incubation, different concentrations of the tested compounds were added by a FlexStation3 microplate reader (Molecular Devices) and read at ex494/em516. Each concentration was run in triplicate. For antagonism studies, the cells were incubated with the same loading buffer as the agonist assay for 60 min. Then, different concentrations of the tested compounds (20 μL/well) were manually added to each well followed by another 15 min of incubation. […] Each concentration was run in triplicate. The corresponding IC50 value of each compound was calculated by non-linear regression using GraphPad Prism 8.0.1 (GraphPad Software, San Diego, CA).

T4 sequence (P42866 whole entry, looked up): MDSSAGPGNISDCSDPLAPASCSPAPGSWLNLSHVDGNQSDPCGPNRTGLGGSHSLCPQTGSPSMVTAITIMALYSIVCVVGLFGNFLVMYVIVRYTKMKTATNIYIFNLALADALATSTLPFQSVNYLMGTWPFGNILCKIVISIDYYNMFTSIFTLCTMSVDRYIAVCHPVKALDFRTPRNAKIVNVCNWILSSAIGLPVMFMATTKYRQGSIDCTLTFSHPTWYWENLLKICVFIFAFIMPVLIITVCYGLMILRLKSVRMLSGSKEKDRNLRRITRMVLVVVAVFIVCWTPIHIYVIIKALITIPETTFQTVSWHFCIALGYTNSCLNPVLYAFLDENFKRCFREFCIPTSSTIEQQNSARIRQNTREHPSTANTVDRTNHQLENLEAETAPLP
T2 sequence (P51681 whole entry): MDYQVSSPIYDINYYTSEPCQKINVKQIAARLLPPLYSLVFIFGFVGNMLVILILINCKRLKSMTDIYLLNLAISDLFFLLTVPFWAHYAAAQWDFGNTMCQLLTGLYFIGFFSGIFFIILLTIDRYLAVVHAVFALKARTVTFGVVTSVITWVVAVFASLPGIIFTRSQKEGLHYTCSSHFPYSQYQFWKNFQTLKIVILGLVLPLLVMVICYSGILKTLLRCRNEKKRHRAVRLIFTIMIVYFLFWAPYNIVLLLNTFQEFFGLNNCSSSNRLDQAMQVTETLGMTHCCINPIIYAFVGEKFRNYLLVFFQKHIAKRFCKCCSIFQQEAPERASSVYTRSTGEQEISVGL
T3 sequence (P42866 whole entry, looked up): as the sequence (P42866 whole entry, looked up) above

In the case of `Cc1nnc(C(C)C)n1C1C[C@H]2CC[C@@H](C1)N2CC[C@H](NC(=O)C1CCC(F)(F)CC1)c1ccccc1` (stereo in doubt) [Maraviroc], the “TI (TC50/EC50)” value [1] is reported as >28, the EC50 [1] is reported as 18 ± 2 nM and the “Cytotoxicity TC50” value [2] is reported as >500 nM.

In the case of `C[C@@H](NC(=O)[C@@H](N)Cc1ccc(O)cc1)C(=O)NCC(=O)N(C)[C@@H](Cc1ccccc1)C(=O)NCCO` [DAMGO, [D-Ala2-MePhe4-Gly(ol)5]enkephalin, reference compound], the “effect of opioid exposure on HIV expression” value [3] is reported as “remarkable increases in HIV expression”.

In the case of `Cc1nnc(C(C)C)n1C1CC2CCC(C1)N2CC[C@H](NC(=O)C1CCC(F)(F)CC1)c1ccc(NC(=O)COCC(=O)NCCCCCCCNC(=O)COCC(=O)N[C@@H]2CC[C@@]3(O)[C@H]4Cc5ccc(O)c6c5[C@@]3(CCN4CC3CC3)[C@H]2O6)cc1` (stereo partly drawn) [VZMC001], the Ki [4] is listed as 239 ± 56 nM, the IC50 [5] is listed as 126 nM and the EC50 [1] is listed as > 100000 nM. The IC50 [6] was 40 nM, the “Cytotoxicity TC50” value [2] was >100000 nM and the “% Emax of DAMGO” value [7] was 11.7 ± 1.2^b %.

In the case of `CNC(=O)COCC(=O)NCCCNC(=O)COCC(=O)N[C@@H]1CC[C@@]2(O)[C@H]3Cc4ccc(O)c5c4[C@@]2(CCN3CC2CC2)[C@H]1O5` [VZMC002], the “Cytotoxicity TC50” value [2] is reported as >100000 nM.

For `CC(C)c1nnc(CCNC(=O)COCC(=O)NCCCCCCCCCNC(=O)COCC(=O)NC2CC[C@@]3(O)[C@H]4Cc5ccc(O)c6c5[C@@]3(CCN4CC3CC3)[C@H]2O6)n1C1CC2CCC(C1)N2CC[C@H](NC(=O)C1CCC(F)(F)CC1)c1ccccc1` (stereo partly drawn) [VZMC017], the “% Emax of DAMGO” value [8] was 4.27 ± 0.66^a %, the Ki [9] was 5.7 ± 0.23 nM and the Ki [10] was 11.2 nM. For the same molecule, the IC50 [11] was 965 ± 30.5 nM and the IC50 [12] was 74.4 nM.

Work on “CCL5: C—C motif chemokine ligand 5, control CCR5 agonist” yielded an EC50 ([11]; agonist mode, HOS-CCR5 transfected with Gqi5, read-out: CCR5 Ca2+ mobilization agonism EC50) of 155 ± 6.58 nM.

B1: MIP-1β: macrophage inflammatory protein 1 beta, used as a control (protein, UniProt P13236 24-92, looked up)
C-C motif chemokine 4: APMGSDPPTACCFSYTARKLPRNFVVDYYETSSLCSQPAVVFQTKRSKQVCADPSESWVQEYVYDLELN
With B1 the Ki [9] was 0.056 ± 0.006 nM.
